These results are taken from patent publication US20110263454A1, “Methods of Identifying Functional Characteristics of Promoters, Transcription Modifying Proteins and Transcription Modulating Agents” (Salk Institute for Biological Studies, priority 2008, published 2011).

In one assay the test system is mUCP1 promoter. Briefly: NHR-promoter luciferase screen, mUCP1 promoter. Format: cell-based, mouse. To be noted: for Luc. act., normalized to lacZ / Normalized Luc. act., normalized to control: mUCP1 promoter reporter, co-transfected HR, with or without its ligand; for Normalized Luc. act., normalized to control: relative to control; for luciferase activity normalized to lacZ activity and to a control, mUCP!: mUCP! promoter-luciferase, CV-1 cells, NHR +/- ligand, control = 1.00. The method, then: (§1) The use, feasibility, and reproducibility of the functional NHR-promoter screen in a 48-well format have been tested validated. Briefly, there were co-expressed 50 ng of each NHR/NHR homodimer or NHR/RXR heterodimer with 100 ng promoter/luciferase construct and 50 ng of LacZ (as a control for transfection efficiency) in CV-1 cells using Fugene HD (Roche) as a transfection reagent (alternatively or additionally, a CMV-YFP construct can be used as a transfection control). Each of the nuclear hormone receptors that were used in these experiments was cloned into a pcDNA3.1 vector and comprised a C-terminally linked V5H6 tag. Twenty-four hours after transfection, appropriate ligands were added, where applicable, (see Table 5 for various ligands and concentrations and after 48 hrs, samples were assayed for luciferase and LacZ activity. To measure for luciferase activity 15 ul of sample was added to 30 ul of luciferase buffer (20 mM tricine, 1.07 mM MgCarbonate, 2.67 mM MgSulfate, 0.1 mM Naz-EDTA, 5 mM DTT, 5 mM ATP, 0.15 mg/ml CoA, 0.5 mM Luciferin), mixed briefly, and run in a Perkin Elmer Victor 5 luminometer. Thus, the functional NHR-promoter screen was used to observe the transcriptional activity of 29 promoters from various physiological pathways including inflammation, lipid and sugar metabolism, cholesterol transport, xenobiotic metabolism, and circadian rhythm.
(§2) The promoters that facilitate transcription of the indicated gene products that were tested using the protocols described herein are listed in the first row of the table. The nuclear hormone receptors and, where applicable, ligands that were assayed for their transcriptional effects on the promoters are listed in the first column of the table. The data represent the luciferase activity of each sample normalized to both the lacZ activity of that sample and to a control, e.g., no NHR or ligand, as customary in the art. As described previously, these normalizations allow the transcriptional activity of each reporter cell to be compared to other samples.
(§3) Tables 7-40 show the transcriptional effects of the hormone receptors, and, where applicable, ligands (orphan receptors are screened without ligand), on each individual promoter. […] The control data of each table are shown in their last rows.

The test system of the next assay is hTNFa promoter. Briefly: NHR-promoter luciferase screen, hTNFa promoter. Format: cell-based, human. The following applies: for Luc. act., normalized to lacZ / Normalized Luc. act., normalized to control: TNFa promoter, HR component without or with ligand; for hTNFa promoter reporter activity: transcription factor +/- ligand, control = 1.00. The method, then:
as §1, §2, §3

In the case of “AR: Androsterone Receptor (NR3C4), cDNA driver”, in the assay on mUCP1 promoter, the “Luc. act., normalized to lacZ” value stood at 3.3; the “Normalized Luc. act., normalized to control” value was 0.7; the “luciferase activity normalized to lacZ activity and to a control, mUCP!” value (“luciferase activity normalized” below) is reported as 0.74. In the assay with hTNFa promoter, the “Luc. act., normalized to lacZ” value came to 1019.9; the “Normalized Luc. act., normalized to control” value was determined as 1.0; the “hTNFa promoter reporter activity” value worked out at 1.04.

With “ERR1: Estrogen Related Receptor α (NR3B1, ERRa), cDNA driver”, in the assay with mUCP1 promoter, the “Luc. act., normalized to lacZ” value was 3.9; the “Normalized Luc. act., normalized to control” value was found to be 0.9; the “luciferase activity normalized” value amounted to 0.88. Besides, in the assay with hTNFa promoter, the “Luc. act., normalized to lacZ” value is on record as 1234.7; the “Normalized Luc. act., normalized to control” value turned out to be 1.3; the “hTNFa promoter reporter activity” value is 1.26.

Regarding “GR: Glucocorticoid Receptor (NR3C1), cDNA driver”, in the assay with mUCP1 promoter, the “Luc. act., normalized to lacZ” value came to 1.9; the “Normalized Luc. act., normalized to control” value amounted to 0.4; the “luciferase activity normalized” value is reported as 0.42. Moreover, in the assay with hTNFa promoter, the “Luc. act., normalized to lacZ” value came to 463.3; the “Normalized Luc. act., normalized to control” value came out at 0.5; the “hTNFa promoter reporter activity” value was 0.47.

For the molecule “NR4a1: NR4a1 (NR4A1; NUR77), nuclear hormone receptor cDNA driver”, in the assay with mUCP1 promoter, the “Luc. act., normalized to lacZ” value turned out to be 7.6; the “Normalized Luc. act., normalized to control” value came to 1.7; the “luciferase activity normalized” value was found to be 1.70. In the assay on hTNFa promoter, the “Luc. act., normalized to lacZ” value turned out to be 1575.8; the “Normalized Luc. act., normalized to control” value was 1.6; the “hTNFa promoter reporter activity” value was 1.60.

Regarding “PNR: Photoreceptor-specific Nuclear Receptor (NR2E3), cDNA driver”, in the assay with mUCP1 promoter, the “Luc. act., normalized to lacZ” value is reported as 1.7; the “Normalized Luc. act., normalized to control” value was 0.4; the “luciferase activity normalized” value was determined as 0.37. In the assay with hTNFa promoter, the “Luc. act., normalized to lacZ” value is on record as 558.4; the “Normalized Luc. act., normalized to control” value was determined as 0.6; the “hTNFa promoter reporter activity” value amounted to 0.57.

Regarding “PPARa: Peroxisome proliferator activated receptor α (NR1C1), cDNA driver”, in the assay on mUCP1 promoter, the “Luc. act., normalized to lacZ” value was 2.6; the “Normalized Luc. act., normalized to control” value was 0.6; the “luciferase activity normalized” value came out at 0.59. For the same molecule, in the assay on hTNFa promoter, the “Luc. act., normalized to lacZ” value stood at 1107.9; the “Normalized Luc. act., normalized to control” value was 1.1; the “hTNFa promoter reporter activity” value is listed as 1.13.

For “RXRa: Retinoic X Receptor α (NR2B1), cDNA driver”, in the assay with mUCP1 promoter, the “Luc. act., normalized to lacZ” value amounted to 2.9; the “Normalized Luc. act., normalized to control” value is reported as 0.7; the “luciferase activity normalized” value was 0.66. Further, in the assay on hTNFa promoter, the “Luc. act., normalized to lacZ” value was found to be 954.8; the “Normalized Luc. act., normalized to control” value was 1.0; the “hTNFa promoter reporter activity” value is 0.97.

For “SF-1: Steroidogenic Factor 1 (NR5A1, SF1), cDNA driver”, in the assay with mUCP1 promoter, the “Luc. act., normalized to lacZ” value is listed as 11.3; the “Normalized Luc. act., normalized to control” value came out at 2.5; the “luciferase activity normalized” value is listed as 2.54. Moreover, in the assay with hTNFa promoter, the “Luc. act., normalized to lacZ” value is listed as 1900.9; the “Normalized Luc. act., normalized to control” value is given as 1.9; the “hTNFa promoter reporter activity” value was 1.93.

Regarding “TLX: Tailless (homolog of drosophila) (NR2E1), cDNA driver”, in the assay on mUCP1 promoter, the “Luc. act., normalized to lacZ” value was found to be 2.8; the “Normalized Luc. act., normalized to control” value stood at 0.6; the “luciferase activity normalized” value is given as 0.63. Also, in the assay on hTNFa promoter, the “Luc. act., normalized to lacZ” value stood at 1085.1; the “Normalized Luc. act., normalized to control” value is 1.1; the “hTNFa promoter reporter activity” value is on record as 1.10.

As for “VDR: Vitamin D Receptor (NR1I1), cDNA driver”, in the assay with mUCP1 promoter, the “Luc. act., normalized to lacZ” value is 2.8; the “Normalized Luc. act., normalized to control” value turned out to be 0.6; the “luciferase activity normalized” value was found to be 0.63. In addition, in the assay with hTNFa promoter, the “Luc. act., normalized to lacZ” value is recorded as 986.3; the “Normalized Luc. act., normalized to control” value is reported as 1.0; the “hTNFa promoter reporter activity” value came out at 1.00.

B1: HNF4a: Hepatocyte Nuclear Factor α (NR2A1), cDNA driver (protein, UniProt P41235 1-474, looked up)
Hepatocyte nuclear factor …: MRLSKTLVDMDMADYSAALDPAYTTLEFENVQVLTMGNDTSPSEGTNLNAPNSLGVSALCAICGDRATGKHYGASSCDGCKGFFRRSVRKNHMYSCRFSRQCVVDKDKRNQCRYCRLKKCFRAGMKKEAVQNERDRISTRRSSYEDSSLPSINALLQAEVLSRQITSPVSGINGDIRAKKIASIADVCESMKEQLLVLVEWAKYIPAFCELPLDDQVALLRAHAGEHLLLGATKRSMVFKDVLLLGNDYIVPRHCPELAEMSRVSIRILDELVLPFQELQIDDNEYAYLKAIIFFDPDAKGLSDPGKIKRLRSQVQVSLEDYINDRQYDSRGRFGELLLLLPTLQSITWQMIEQIQFIKLFGMAKIDNLLQEMLLGGSPSDAPHAHHPLHPHLMQEHMGTNVIVANTMPTHLSNGQMCEWPRPRGQAATPETPQPSPPGGSGSEPYKLLPGAVATIVKPLSAIPQPTITKQEVI
As for B1, in the assay with mUCP1 promoter, the “Luc. act., normalized to lacZ” value turned out to be 2.8; the “Normalized Luc. act., normalized to control” value is listed as 0.6; the “luciferase activity normalized” value was determined as 0.63. In the assay on hTNFa promoter, the “Luc. act., normalized to lacZ” value is 852.9; the “Normalized Luc. act., normalized to control” value stood at 0.9; the “hTNFa promoter reporter activity” value worked out at 0.87.

B2: RORa: RAR-related Orphan Receptor α (NR1F1), cDNA driver (protein, UniProt P35398 1-523, looked up)
Nuclear receptor ROR-alpha: MESAPAAPDPAASEPGSSGADAAAGSRETPLNQESARKSEPPAPVRRQSYSSTSRGISVTKKTHTSQIEIIPCKICGDKSSGIHYGVITCEGCKGFFRRSQQSNATYSCPRQKNCLIDRTSRNRCQHCRLQKCLAVGMSRDAVKFGRMSKKQRDSLYAEVQKHRMQQQQRDHQQQPGEAEPLTPTYNISANGLTELHDDLSNYIDGHTPEGSKADSAVSSFYLDIQPSPDQSGLDINGIKPEPICDYTPASGFFPYCSFTNGETSPTVSMAELEHLAQNISKSHLETCQYLREELQQITWQTFLQEEIENYQNKQREVMWQLCAIKITEAIQYVVEFAKRIDGFMELCQNDQIVLLKAGSLEVVFIRMCRAFDSQNNTVYFDGKYASPDVFKSLGCEDFISFVFEFGKSLCSMHLTEDEIALFSAFVLMSADRSWLQEKVKIEKLQQKIQLALQHVLQKNHREDGILTKLICKVSTLRALCGRHTEKLMAFKAIYPDIVRLHFPPLYKELFTSEFEPAMQIDG
On to B2, for which, in the assay on mUCP1 promoter, the “Luc. act., normalized to lacZ” value is 1.7; the “Normalized Luc. act., normalized to control” value amounted to 0.4; the “luciferase activity normalized” value turned out to be 0.38. Also, in the assay on hTNFa promoter, the “Luc. act., normalized to lacZ” value is on record as 607.5; the “Normalized Luc. act., normalized to control” value is recorded as 0.6; the “hTNFa promoter reporter activity” value was determined as 0.62.

B3: LXRb: Liver X Receptor β (NR1H2), cDNA driver (protein, UniProt P55055 1-460, looked up)
Oxysterols receptor LXR-beta: MSSPTTSSLDTPLPGNGPPQPGAPSSSPTVKEEGPEPWPGGPDPDVPGTDEASSACSTDWVIPDPEEEPERKRKKGPAPKMLGHELCRVCGDKASGFHYNVLSCEGCKGFFRRSVVRGGARRYACRGGGTCQMDAFMRRKCQQCRLRKCKEAGMREQCVLSEEQIRKKKIRKQQQESQSQSQSPVGPQGSSSSASGPGASPGGSEAGSQGSGEGEGVQLTAAQELMIQQLVAAQLQCNKRSFSDQPKVTPWPLGADPQSRDARQQRFAHFTELAIISVQEIVDFAKQVPGFLQLGREDQIALLKASTIEIMLLETARRYNHETECITFLKDFTYSKDDFHRAGLQVEFINPIFEFSRAMRRLGLDDAEYALLIAINIFSADRPNVQEPGRVEALQQPYVEALLSYTRIKRPQDQLRFPRMLMKLVSLRTLSSVHSEQVFALRLQDKKLPPLLSEIWDVHE
As for B3, in the assay with mUCP1 promoter, the “Luc. act., normalized to lacZ” value was found to be 17.2; the “Normalized Luc. act., normalized to control” value was 3.9; the “luciferase activity normalized” value stood at 3.88. Further, in the assay on hTNFa promoter, the “Luc. act., normalized to lacZ” value was 866.1; the “Normalized Luc. act., normalized to control” value was 0.9; the “hTNFa promoter reporter activity” value is on record as 0.88.

B4: RORg: RAR-related Orphan Receptor γ (NR1F3), cDNA driver (protein, UniProt P51449 1-518, looked up)
Nuclear receptor ROR-gamma: MDRAPQRQHRASRELLAAKKTHTSQIEVIPCKICGDKSSGIHYGVITCEGCKGFFRRSQRCNAAYSCTRQQNCPIDRTSRNRCQHCRLQKCLALGMSRDAVKFGRMSKKQRDSLHAEVQKQLQQRQQQQQEPVVKTPPAGAQGADTLTYTLGLPDGQLPLGSSPDLPEASACPPGLLKASGSGPSYSNNLAKAGLNGASCHLEYSPERGKAEGRESFYSTGSQLTPDRCGLRFEEHRHPGLGELGQGPDSYGSPSFRSTPEAPYASLTEIEHLVQSVCKSYRETCQLRLEDLLRQRSNIFSREEVTGYQRKSMWEMWERCAHHLTEAIQYVVEFAKRLSGFMELCQNDQIVLLKAGAMEVVLVRMCRAYNADNRTVFFEGKYGGMELFRALGCSELISSIFDFSHSLSALHFSEDEIALYTALVLINAHRPGLQEKRKVEQLQYNLELAFHHHLCKTHRQSILAKLPPKGKLRSLCSQHVERLQIFQHLHPIVVQAAFPPLYKELFSTETESPVGLSK
As to B4, in the assay with mUCP1 promoter, the “Luc. act., normalized to lacZ” value came to 2.8; the “Normalized Luc. act., normalized to control” value was determined as 0.6; the “luciferase activity normalized” value is 0.62. Further, in the assay with hTNFa promoter, the “Luc. act., normalized to lacZ” value was determined as 1152.0; the “Normalized Luc. act., normalized to control” value was 1.2; the “hTNFa promoter reporter activity” value came out at 1.17.
